Measured values: patent US11542274B1, “Therapeutic compounds and methods of use thereof” (AGENCY FOR SCIENCE, TECHNOLOGY AND RESEARCH (A*STAR), priority 2019, dated 2023)
Entries after “also recorded” stand apart in the source; their conditions may differ.

Tests used:
[1] = biological target: CRBN (truncated, residues 319-427) (Homo sapiens (Human), UniProt Q96SW2); assay: NMR binding experiments (1H-15N HSQC titration); settings: 15N-labeled CRBN, ligand to CRBN ratios 0, 0.5, 1.0 and 1.5, 25° C.
Protocol: All the NMR experiments were carried out on a Bruker magnet with proton frequency of 600 MHz or 700 MHz equipped with a cryo-probe. The experiments were performed at 25° C. The ^1H-^15N HSQC spectrum was collected using a standard pulse from the pulse library (Topspin version 2.1). To test whether a developed CRBN binder interacts with CRBN, titration of the compound to ^15N-labeled CRBN was carried out. The ^1H-^15N HSQC spectra of mixtures in which ligand to CRBN ratios are 0, 0.5, 1.0 and 1.5 were collected and compared. The data were collected using Topspin (ver 2.1) provided with equipment. The data were processed with topspin (ver 2.1), NMRPipe (Delaglio et al. 1995) and visualized using NMRView (Johnson 2004). The truncated CRBN: residues 319-427 was used in the NMR experiments.

truncated CRBN (319-427) = truncated CRBN (319-427) (Homo sapiens (Human), UniProt Q96SW2); assay: Fluorescence binding assay (fluorescence quenching), affinity to E3-CEREBLON (CRBN)-ubiquitin ligase; settings: ubiquitination moiety, pH 6.5
Protocol: Fluorescence quenching end point measurements were performed in black polystyrene 384-plates on Tecan Safire monochromator reader with the following settings: excitation 280 nm; excitation bandwidth 10.0 nm; emission collection 340 nm; emission bandwidth 20.0 nm; high sensitivity flash mode; integration time 40 μS; delay 0 μm. All measurements were done in duplicates; GraphPad Prism 5.03 was used for data evaluation, curve fitting, plotting and determination of IC50 values.
Serial dilutions of each tested ligands were mixed with truncated CRBN (319-427) to a final volume of 25 μL in the assay buffer (20 mM sodium phosphate buffer, pH 6.5, with 150 mM sodium chloride). The final concentration of CRBN in all assay will be 5-10 μM with DMSO level at 4%. A control lanes were prepared with only tested ligands without the addition of CRBN, top up with assay buffer to 25 μL. Plates were incubated for 5 minutes and analyzed using the monochromator plate reader.
IC50 is the compound concentration that causes 50% quenching of the desired activity.

BRD4 = BRD4 (Homo sapiens (Human), UniProt O60885); assay: Western blot analysis of BRD4 degradation in RAMOS cells; format: cell-based
Protocol: Ramos (ATCC, CRL-1596) cells cultured in Roswell Park Memorial Institute (RPMI) 1640 Medium supplemented with 10% Fetal bovine serum and 1% Penicillin-streptomycin at 37° C. in humidified atmosphere with 5% CO2. In 6-well plate, 1.2 million cells were treated with indicated PROTAC compounds at 0.1% final concentration (v/v) of DMSO for desired duration of time. Pelleted cells were lysed in RIPA buffer (1% Nonidet P-40, 0.5% sodium deoxycholate, 0.1% SDS in 1× Tris-buffered saline) supplemented with protease inhibitor cocktail, 0.5 U/μL Benzonase (Novagen) and 1 mM MgCl2. Lysates were incubated on ice for 10 minutes followed by 15 minutes' centrifugation at 15000×g at 4° C. Supernatant was collected and subjected to Bradford protein quantification assay. Heat-denatured lysates (50 μg total protein) were loaded on NuPAGE 3-8% Tris-Acetate SDS protein gels. Proteins were transferred to PVDF membrane using iBlot 2 Dry Blotting Device (Thermo Fisher Scientific) at 20V for 13 minutes. Membranes were processed using iBind Flex Western Device (Thermo Fisher Scientific) by following the manufacturer's guideline. Membranes were probed with anti-BRD4 (Cell Signaling, Cat. #13440S), anti-c-Myc (Cell Signaling, Cat. #5605S), anti-β-actin (Proteintech, Cat. #66009-1-lg) antibodies, and developed with anti-Rabbit IgG, HRP-linked F(ab′)2 fragment (from donkey) (GE Life Sciences, Cat. #NA-9340) or anti-mouse IgG, AP-linked Antibody (Cell Signaling Technologies, Cat. #7056S) secondary antibodies. Membranes were incubated with Amersham ECL Select Western Blotting Detection Reagent (GE life sciences, Cat. #RPN2235) and Immun-Star™ AP Chemiluminescence Kits (Biorad, Cat. #1705018), visualized under FluorChem system (Protein Simple).
The protocol was run at 4 different inhibitor concentrations: 5 μM, 1 μM, 0.3 μM, 0.1 μM, using neat DMSO as the negative control. The % BRD4 degradation in western blot analysis is graded as follows: • K: Protein degradation >70% • L: 40%≤protein degradation<70% • M: protein degradation<40%

truncated CRBN (319-427), sequence (Q96SW2 319-427): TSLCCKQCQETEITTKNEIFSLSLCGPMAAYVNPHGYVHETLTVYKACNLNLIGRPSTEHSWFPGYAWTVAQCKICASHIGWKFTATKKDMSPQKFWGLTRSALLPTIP
CRBN (truncated, residues 319-427), sequence (Q96SW2 319-427): as above

Compound: Nc1cc(-c2ccc3c(c2)NC(=O)C3)ccn1 [Compound 011, 6-(2-aminopyridin-4-yl)indolin-2-one]
- binding to CRBN in HSQC titration experiments [1]: bind to protein CRBN; also recorded: clear binding
- IC50 (truncated CRBN (319-427)): 100 to 300 µM

Compound: Nc1cnccc1-c1ccc2c(c1)NC(=O)C2 [Compound 012, 6-(3-aminopyridin-4-yl)indolin-2-one]
- binding to CRBN in HSQC titration experiments [1]: bind to protein CRBN; also recorded: clear binding
- IC50 (truncated CRBN (319-427)): > 300 µM

Compound: Nc1ccc(-c2ccc3c(c2)NC(=O)C3)cn1 [Compound 013, 6-(6-aminopyridin-3-yl)indolin-2-one]
- binding to CRBN in HSQC titration experiments [1]: bind to protein CRBN; also recorded: clear binding
- IC50 (truncated CRBN (319-427)): > 300 µM

Compound: Nc1cc(-c2ccc3c(c2)CC(=O)N3)ccn1 [Compound 040, 5-(2-aminopyridin-4-yl)indolin-2-one]
- binding to CRBN in HSQC titration experiments [1]: bind to protein CRBN; also recorded: clear binding
- IC50 (truncated CRBN (319-427)): 100 to 300 µM

Compound: Nc1ncccc1-c1ccc2c(c1)CC(=O)N2 [Compound 045, 5-(2-aminopyridin-3-yl)indolin-2-one]
- binding to CRBN in HSQC titration experiments [1]: bind to protein CRBN; also recorded: clear binding
- IC50 (truncated CRBN (319-427)): 100 to 300 µM

Compound: Cc1cc(NCCOCCOCCOCCOc2ccc(NC(=O)C[C@@H]3N=C(c4ccc(Cl)cc4)c4c(sc(C)c4C)-n4c(C)nnc43)cc2)ncc1-c1ccc2c(c1)CC(=O)N2 [Compound 148, (S)-2-(4-(4-chlorophenyl)-2,3,9-trimethyl-6H-thieno[3,2-f][1,2,4]triazolo[4,3-a][1,4]diazepin-6-yl)-N-(4-(2-(2-(2-(2-((4-methyl-5-(2-oxoindolin-5-yl)pyridin-2-yl)amino)ethoxy)ethoxy)ethoxy)ethoxy)phenyl)acetamide]
- % BRD4 degradation (BRD4; 0.1 μM): M (protein degradation<40%)
- % BRD4 degradation (BRD4; 0.3 μM): L (40%≤protein degradation<70%)
- % BRD4 degradation (BRD4; 1 μM): L (40%≤protein degradation<70%)
- % BRD4 degradation (BRD4; 5 μM): K (Protein degradation >70%)

Compound: Cc1cc(NCCOCCOCCOCCOc2ccc(NC(=O)C[C@@H]3N=C(c4ccc(Cl)cc4)c4c(sc(C)c4C)-n4c(C)nnc43)cc2)ncc1-c1cnc2c(c1)CC(=O)N2 [Compound 156, (S)-2-(4-(4-chlorophenyl)-2,3,9-trimethyl-6H-thieno[3,2-f][1,2,4]triazolo[4,3-a][1,4]diazepin-6-yl)-N-(4-(2-(2-(2-(2-((4-methyl-5-(2-oxo-2,3-dihydro-1H-pyrrolo[2,3-b]pyridin-5-yl)pyridin-2-yl)amino)ethoxy)ethoxy)ethoxy)ethoxy)phenyl)acetamide]
- % BRD4 degradation (BRD4; 0.1 μM): M (protein degradation<40%)
- % BRD4 degradation (BRD4; 0.3 μM): M (protein degradation<40%)
- % BRD4 degradation (BRD4; 1 μM): L (40%≤protein degradation<70%)
- % BRD4 degradation (BRD4; 5 μM): K (Protein degradation >70%)
